In brackets after ≈: the same amount, converted by molar mass.
What was measured:
Test in all cases: Antimicrobial activity (minimum inhibitory concentration)
Assay type in all cases: cell-based
[1] = tested on: C. freundii GN346; conditions: Citrobacter freundii
Experimental: (§1) For representative compounds among the novel carbapenem derivatives of the present invention, the minimum inhibitory concentration (MIC, μg/ml) against various pathogenic bacteria was measured in accordance with a method described in CHEMOTHERAPY, Vol. 16, No. 1, 99 (1968).

[2] = tested on: E. cloacae G-0008; conditions: Enterobacter cloacae, G0008
Experimental: as §1

[3] = tested on: E. coli GN206; conditions: Escherichia coli
Experimental: as §1

[4] = tested on: E. coli NIHJ JC-2; conditions: Escherichia coli, NIHJJC2
Experimental: as §1

[5] = tested on: K. pneumoniae PCI602; conditions: Klebsiella pneumoniae
Experimental: as §1

[6] = tested on: M. morganii 1510; conditions: Morganella morganii
Experimental: as §1

[7] = tested on: P. vulgaris GN76; conditions: Proteus vulgaris; P. vulgaris GN76; read-out: MIC
Experimental: as §1

[8] = tested on: Ps. aeruginosa GN10362; conditions: Pseudomonas aeruginosa; Ps. aeruginosa GN10362; read-out: MIC
Experimental: as §1

[9] = tested on: S. aureus 209P JC-1; conditions: Staphylococcus aureus
Experimental: as §1

[10] = tested on: S. aureus M126; conditions: Staphylococcus aureus; S. aureus M126, highly meticillin-resistant strain
Experimental: as §1

[11] = tested on: S. marcescens No. 1; conditions: Serratia marcescens
Experimental: as §1

Row | Compound | MIC [1] | MIC [2] | MIC [3] | MIC [4] | MIC [5] | MIC [6] | MIC [7] | MIC [8] | MIC [9] | MIC [10] | MIC [11]
1 | C[C@@H](O)[C@H]1C(=O)N2C(C(=O)O)=C(S[C@@H]3CN[C@H](C(O)c4csc5cncn45)C3)[C@H](C)[C@H]12 (single isomer, unassigned) [Ex. 6] | 0.1 µg/mL (≈ 0.215 µM) | 0.1 µg/mL (≈ 0.215 µM) | 0.1 µg/mL (≈ 0.215 µM) | 0.05 µg/mL (≈ 0.108 µM) | 0.1 µg/mL (≈ 0.215 µM) | 0.39 µg/mL (≈ 0.839 µM) | 0.78 µg/mL (≈ 1.68 µM) | 1.56 µg/mL (≈ 3.36 µM) | < 0.025 µg/mL | 6.25 µg/mL (≈ 13.5 µM) | 0.2 µg/mL (≈ 0.431 µM)
2 | C[C@@H](O)[C@H]1C(=O)N2C(C(=O)O)=C(S[C@@H]3CN[C@H](C(O)c4cn5c[n+](C)cc5s4)C3)[C@H](C)[C@H]12 (single isomer, unassigned) [Ex. 18] | 0.2 µg/mL | 0.05 µg/mL | 0.05 µg/mL | 0.05 µg/mL | 0.1 µg/mL | 0.2 µg/mL | 0.39 µg/mL | 3.13 µg/mL | < 0.025 µg/mL | 12.5 µg/mL | 0.1 µg/mL
3 | C[C@@H](O)[C@H]1C(=O)N2C(C(=O)O)=C(S[C@@H]3CN[C@H](C(=O)NCc4n5ccsc5c[n+]4C)C3)[C@H](C)[C@H]12 [Ex. 2, (1R,5S,6S)-6-((1R)-1-Hydroxyethyl)-1-methyl-2-[(3S,5S)-5-[(6-methylimidazo[5,1-b]thiazolium-5-yl)methylaminocarbonyl]pyrrolidin-3-yl]thiocarbapen-2-em-3-carboxylic acid chloride] | 0.2 µg/mL | 0.1 µg/mL | 0.05 µg/mL | 0.1 µg/mL | 0.1 µg/mL | 0.39 µg/mL | 1.56 µg/mL | 12.5 µg/mL | < 0.025 µg/mL | 6.25 µg/mL | 0.2 µg/mL
4 | C[C@@H](O)[C@H]1C(=O)N2C(C(=O)O)=C(S[C@@H]3CN[C@H](/C=C\c4csc5cncn45)C3)[C@H](C)[C@H]12 [Ex. 38, (1R,5S,6S)-6-((1R)-1-Hydroxyethyl)-2-[(3S,5S)-5-[2(Z)-(imidazo[5,1-b]thiazol-3-yl)ethenyl]pyrrolidin-3-yl]thio-1-methylcarbapen-2-em-3-carboxylic acid] | 0.2 µg/mL (≈ 0.434 µM) | 0.1 µg/mL (≈ 0.217 µM) | 0.1 µg/mL (≈ 0.217 µM) | 0.1 µg/mL (≈ 0.217 µM) | 0.2 µg/mL (≈ 0.434 µM) | 0.78 µg/mL (≈ 1.69 µM) | 1.56 µg/mL (≈ 3.39 µM) | 6.25 µg/mL (≈ 13.6 µM) | 0.1 µg/mL (≈ 0.217 µM) | 25 µg/mL (≈ 54.3 µM) | 0.2 µg/mL (≈ 0.434 µM)
5 | C[C@@H](O)[C@H]1C(=O)N2C(C(=O)O)=C(S[C@@H]3CN[C@H](/C=C\c4csc5c[n+](C)cn45)C3)[C@H](C)[C@H]12 [Ex. 39, (1R,5S,6S)-6-((1R)-1-Hydroxyethyl)-1-methyl-2-[(3S,5S)-5-[2(Z)-(6-methylimidazo[5,1-b]thiazolium-3-yl)ethenyl]pyrrolidin-3-yl]thiocarbapen-2-em-3-carboxylic acid chloride] | 0.1 µg/mL | 0.05 µg/mL | < 0.025 µg/mL | < 0.025 µg/mL | 0.05 µg/mL | 0.2 µg/mL | 0.39 µg/mL | 6.25 µg/mL | < 0.025 µg/mL | 6.25 µg/mL | 0.05 µg/mL
6 | C[C@@H](O)[C@H]1C(=O)N2C(C(=O)O)=C(S[C@@H]3CN[C@H](c4csc5c[n+](C)cn45)C3)[C@H](C)[C@H]12 [Ex. 50, (1R,5S,6S)-6-((1R)-1-Hydroxyethyl)-1-methyl-2-[(3S,5S)-5-[(6-methylimidazo[5,1-b]thiazolium)-3-yl]pyrrolidin-3-yl]thiocarbapen-2-em-3-carboxylic acid chloride] | 0.1 µg/mL | 0.05 µg/mL | 0.05 µg/mL | 0.05 µg/mL | 0.1 µg/mL | 0.39 µg/mL | 0.78 µg/mL | 0.78 µg/mL | 0.05 µg/mL | 12.5 µg/mL | 0.1 µg/mL
7 | C[C@@H](O)[C@H]1C(=O)N2C(C(=O)O)=C(S[C@@H]3CN[C@H](/C=C/c4cn5c[n+](CC(N)=O)cc5s4)C3)[C@H](C)[C@H]12 [Ex. 53A] | 0.1 µg/mL | 0.1 µg/mL | 0.1 µg/mL | 0.05 µg/mL | 0.1 µg/mL | 0.39 µg/mL | 0.78 µg/mL | 0.78 µg/mL | 0.05 µg/mL | 12.5 µg/mL | 0.1 µg/mL
8 | C[C@@H](O)[C@H]1C(=O)N2C(C(=O)O)=C(S[C@@H]3CN[C@H](/C=C\c4cn5c[n+](CC(N)=O)cc5s4)C3)[C@H](C)[C@H]12 [Ex. 53B, (1R,5S,6S)-2-[(3S,5S)-5-[2(Z)-(6-(carbamoylmethyl)imidazo[5,1-b]thiazolium-2-yl)ethenyl]pyrrolidin-3-yl]thio-6-((1R)-1-hydroxyethyl)-1-methylcarbapen-2-em-3-carboxylic acid iodide] | 0.05 µg/mL | 0.05 µg/mL | 0.05 µg/mL | 0.05 µg/mL | 0.05 µg/mL | 0.2 µg/mL | 0.39 µg/mL | 0.78 µg/mL | < 0.025 µg/mL | 3.13 µg/mL | 0.1 µg/mL
9 | C[C@@H](O)[C@H]1C(=O)N2C(C(=O)O)=C(S[C@@H]3CN[C@H](/C=C\c4csc5c[n+](CC(N)=O)cn45)C3)[C@H](C)[C@H]12 [Ex. 54] | 0.05 µg/mL | < 0.025 µg/mL | 0.05 µg/mL | < 0.025 µg/mL | 0.05 µg/mL | 0.2 µg/mL | 0.39 µg/mL | 1.56 µg/mL | < 0.025 µg/mL | 3.13 µg/mL | 0.1 µg/mL
10 | Cc1n2cc(C[C@@H]3C[C@H](SC4=C(C(=O)O)N5C(=O)[C@H]([C@@H](C)O)[C@H]5[C@H]4C)CN3)sc2c[n+]1CCC(N)=O [Ex. 67, (1R,5S,6S)-2-[(3S,5S)-5-(6-(2-Carbamoylethyl)-5-methylimidazo[5,1-b]thiazolium-2-yl)methylpyrrolidin-3-yl]thio-6-((1R)-1-hydroxyethyl)-1-methylcarbapen-2-em-3-carboxylic acid chloride] | 0.05 µg/mL | 0.05 µg/mL | 0.1 µg/mL | 0.05 µg/mL | 0.1 µg/mL | 0.39 µg/mL | 0.78 µg/mL | 0.78 µg/mL | < 0.025 µg/mL | 12.5 µg/mL | 0.39 µg/mL
11 | C[C@@H](O)[C@H]1C(=O)N2C(C(=O)[O-])=C(S[C@@H]3CN[C@H](/C=C\c4csc5c[n+](CCC(N)=O)cn45)C3)[C@H](C)[C@H]12 [Ex. 72, (1R,5S,6S)-2-[(3S,5S)-5-[2(Z)-(6-(2-Carbamoylethyl)imidazo[5,1-b]thiazolium-3-yl)ethenyl]pyrrolidin-3-yl]thio-6-((1R)-1-hydroxyethyl)-1-methylcarbapen-2-em-3-carboxylate] | 0.1 µg/mL (≈ 0.188 µM) | 0.05 µg/mL (≈ 0.094 µM) | 0.1 µg/mL (≈ 0.188 µM) | 0.05 µg/mL (≈ 0.094 µM) | 0.1 µg/mL (≈ 0.188 µM) | 0.39 µg/mL (≈ 0.734 µM) | 0.78 µg/mL (≈ 1.47 µM) | 1.56 µg/mL (≈ 2.93 µM) | < 0.025 µg/mL | 6.25 µg/mL (≈ 11.8 µM) | 0.1 µg/mL (≈ 0.188 µM)
12 | C[C@@H](O)[C@H]1C(=O)N2C(C(=O)O)=C(S[C@@H]3CN[C@H](/C=C\c4cn5c[n+](CCC(N)=O)cc5s4)C3)[C@H](C)[C@H]12 [Ex. 76, (1R,5S,6S)-2-[(3S,5S)-5-[2(Z)-(6-(2-Carbamoylethyl)imidazo[5,1-b]thiazolium-2-yl)ethenyl]pyrrolidin-3-yl]thio-6-((1R)-1-hydroxyethyl)-1-methylcarbapen-2-em-3-carboxylic acid chloride] | 0.1 µg/mL | 0.05 µg/mL | 0.1 µg/mL | 0.05 µg/mL | 0.1 µg/mL | 0.2 µg/mL | 0.39 µg/mL | 0.78 µg/mL | < 0.025 µg/mL | 6.25 µg/mL | 0.2 µg/mL
